The results in this text go back to PMC6217055 (Theranostics, 2018).

Structures are written as SMILES.

One experiment concerns 4T1-Fluc tumour. Briefly: 4T1-Fluc BALB/c homograft mouse model. To be noted: daily oral; vorinostat, abemaciclib 60 mg/kg. The class given is in vivo.
For experiment [1], the system named is MDA-MB-468, MDA-MB-231, SK-OV-3 and OVCAR-5 cells. Kind of experiment: cell cycle assay. The class given is cell-based, human. To be noted: 48 h, quarter, half of IC50 and IC50.
Experiment [2] concerns six solid tumour cell lines. Kind of experiment: CCK-8 cytotoxicity, summary over six cell lines. The class given is cell-based. The settings on record: read-out: IC50 values in these cell lines.

With `O=C(CCCCCCC(=O)Nc1ccccc1)NO` [Vorinostat], the tumour volume entry with 4T1-Fluc tumour is “barely impacted”. In addition, in experiment [1], the “cell cycle distribution (G1-phase arrest)” value is recorded as “did not induce G1 to S phase arrest”.
For `CCN1CCN(Cc2ccc(Nc3ncc(F)c(-c4cc(F)c5nc(C)n(C(C)C)c5c4)n3)nc2)CC1` [Abemaciclib], in experiment [2], the IC50 was over 1000 nM. The tumour volume result with 4T1-Fluc tumour is on record as “decreased only slightly”. Besides, the “cell cycle distribution (G1-phase arrest)” value in experiment [1] is reported as “did not induce G1 to S phase arrest”.

The IC50 is the midpoint of a concentration-inhibition curve.
